Measurements from patent US20230348424A1, “HETEROCYCLIC COMPOUNDS AND METHODS OF USE” (Schrödinger, Inc., priority 2022, published 2023).

How the values were obtained:
[1] = target: SOS1:KRAS (G12C) interaction (Homo sapiens (Human), UniProt Q07889); experiment: SOS1 KRas(G12C) FRET Assay; type: binding; conditions: 0.5 nM His10-SOS1 (res. 564-1049), 2.5 nM GST-KRAS G12C (res. 1-169), 2 hrs at RT
Method in brief: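 GST-KRAS G12C (res. 1-169) at 2.5 nM and His10-SOS1 (res. 564-1049) at 0.5 nM, final, in PBS with 0.1% BSA, 5 mM MgCl2, 100 mM KF, 5 mM DTT and 0.5% DMSO. After 2 h at RT, FRET read at 665/615 nm and normalized to DMSO and no-SOS1 controls. IC50 by non-linear regression.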

human SOS1 = human SOS1 (Homo sapiens (Human), UniProt Q07889); experiment: Surface Plasmon Resonance (SPR) SOS1 Binding Assay; conditions: biotinylated SOS1 (res. 564-1049), Biacore 8K, 25° C., kinetic or steady state fit, 1:1 binding; read-out: hSOS1 KD
human SOS1, sequence (Q07889 564-1049): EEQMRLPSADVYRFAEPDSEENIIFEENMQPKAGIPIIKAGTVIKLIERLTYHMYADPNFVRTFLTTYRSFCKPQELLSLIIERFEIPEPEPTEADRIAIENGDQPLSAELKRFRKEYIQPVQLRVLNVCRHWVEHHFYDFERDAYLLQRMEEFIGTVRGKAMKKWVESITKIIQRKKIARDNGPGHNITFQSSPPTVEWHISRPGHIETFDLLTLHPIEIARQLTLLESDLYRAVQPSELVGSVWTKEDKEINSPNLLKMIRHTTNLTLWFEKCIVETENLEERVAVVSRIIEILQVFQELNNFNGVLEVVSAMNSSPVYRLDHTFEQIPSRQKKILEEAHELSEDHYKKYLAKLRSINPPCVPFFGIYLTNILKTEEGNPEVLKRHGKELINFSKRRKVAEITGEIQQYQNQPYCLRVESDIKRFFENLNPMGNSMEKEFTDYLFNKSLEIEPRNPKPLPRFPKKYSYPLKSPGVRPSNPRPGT
Method: Binding to SOS1 was measured using a SPR assay with purified recombinant human SOS1 substrate (res. 564-1049 with N-terminal Avi tag; purified and biotinylated based on Hillig, et al., Proc Natl Acad Sci USA (2019); 116(7):2551-2560). SPR measurements were performed on a Biacore 8K SPR instrument (GE Healthcare, Sweden). Assays were performed at 25° C. using Series S SA sensor chips pre-coated with streptavidin (GE Healthcare, Cat. BR100531). Biotinylated SOS1 diluted in sample buffer (20 mM Tris HCI, 150 mM NaCl, 1 mM DTT, 0.05% TWEEN 20, 1 mM MgCh, pH 8.0) was captured to one flow cell of the chip to about 3,000 resonance units (RU) using sample buffer supplemented with 5% DMSO as a running buffer. Serial dilutions of the assayed compounds in the running buffer at 100, 50 or 0.5 µM were injected for 60 s at a flow rate of 30 µL/min and association phases were recorded. Dissociation of the samples was monitored for 600 s. Data processing was performed using Biacore Insight Software (Biacore, GE Healthcare). Sensorgrams recorded on a SA flow cell without captured protein were subtracted from sensorgrams recorded on the SOS1 surface. Blank injections of running buffer were used for double referencing and solvent correction was applied to all sample sensorgrams to correct for buffer mismatches. KDS were estimated using a kinetic or steady state, where applicable, fitting model describing a reversible equilibrium with 1:1 binding between SOS1 and the compound.

SOS1:KRAS (G12C) interaction, sequence (Q07889 564-1049, stated change not applied): as the sequence (Q07889 564-1049) above

| Structure (SMILES) | IC50 [1] [nM] | Kd (human SOS1) [nM] |
| --- | --- | --- |
| Cc1c([C@@H](C)NC(=O)c2cn(C3CCOCC3)c(=O)cc2NCc2cncn2C)cccc1C(F)(F)F [Example 10, (R)-4-(((1-methyl-1H-imidazol-5-yl)methyl)amino)-N-(1-(2-methyl-3-(trifluoromethyl)phenyl)ethyl)-6-oxo-1-(tetrahydro-2H-pyran-4-yl)-1,6-dihydropyridine-3-carboxamide] | 73 | 74 |
| CNc1cc(=O)n(C2CCOCC2)cc1C(=O)N[C@H](C)c1cccc(C(F)(F)F)c1C [Example 12, (R)-N-(1-(2-methyl-3-(trifluoromethyl)phenyl)ethyl)-4-(methylamino)-6-oxo-1-(tetrahydro-2H-pyran-4-yl)-1,6-dihydropyridine-3-carboxamide] | 705 | 245 |
| Cc1c([C@@H](C)NC(=O)c2cn(C3CCOCC3)c(=O)cc2N[C@H]2CC[C@H](O)C2)cccc1C(F)(F)F [Example 13, 4-(((1S,3S)-3-hydroxycyclopentyl)amino)-N-((R)-1-(2-methyl-3-(trifluoromethyl)phenyl)ethyl)-6-oxo-1-(tetrahydro-2H-pyran-4-yl)-1,6-dihydropyridine-3-carboxamide] | 155 | 91 |
| Cc1c([C@@H](C)NC(=O)c2cn(C3CCOCC3)c(=O)cc2N[C@@H]2CC[C@@H](O)C2)cccc1C(F)(F)F [Example 14, 4-(((1R,3R)-3-hydroxycyclopentyl)amino)-N-((R)-1-(2-methyl-3-(trifluoromethyl)phenyl)ethyl)-6-oxo-1-(tetrahydro-2H-pyran-4-yl)-1,6-dihydropyridine-3-carboxamide] | 225 | 103 |

The next molecules have a lower IC50 [1] than those just listed; values first:

| IC50 [1] [nM] | Kd (human SOS1) [nM] | Structure (SMILES) |
| --- | --- | --- |
| 35.5 | 20 | Cc1c([C@@H](C)NC(=O)c2cn(C3CCOCC3)c(=O)cc2N[C@@H]2CCCN(C)C2)cccc1C(F)(F)F [Example 5, N-((R)-1-(2-methyl-3-(trifluoromethyl)phenyl)ethyl)-4-(((R)-1-methylpiperidin-3-yl)amino)-6-oxo-1-(tetrahydro-2H-pyran-4-yl)-1,6-dihydropyridine-3-carboxamide] |
| 56.7 | 30 | Cc1c([C@@H](C)NC(=O)c2cn(C3CCOCC3)c(=O)cc2N[C@H]2CCCN(C)C2)cccc1C(F)(F)F [Example 6, N-((R)-1-(2-methyl-3-(trifluoromethyl)phenyl)ethyl)-4-(((S)-1-methylpiperidin-3-yl)amino)-6-oxo-1-(tetrahydro-2H-pyran-4-yl)-1,6-dihydropyridine-3-carboxamide] |
| 53.4 | 20 | Cc1c([C@@H](C)NC(=O)c2cn(C3CCOCC3)c(=O)cc2N[C@H]2C[C@H](N(C)C)C2)cccc1C(F)(F)F [Example 7, 4-(((1r,3R)-3-(dimethylamino)cyclobutyl)amino)-N-((R)-1-(2-methyl-3-(trifluoromethyl)phenyl)ethyl)-6-oxo-1-(tetrahydro-2H-pyran-4-yl)-1,6-dihydropyridine-3-carboxamide] |
| 48.6 | 12 | Cc1c([C@@H](C)NC(=O)c2cn(C3CCOCC3)c(=O)cc2NCC2CN(C)C2)cccc1C(F)(F)F [Example 8, (R)-N-(1-(2-methyl-3-(trifluoromethyl)phenyl)ethyl)-4-(((1-methylazetidin-3-yl)methyl)amino)-6-oxo-1-(tetrahydro-2H-pyran-4-yl)-1,6-dihydropyridine-3-carboxamide] |
| 39 | 17 | Cc1c([C@@H](C)NC(=O)c2cn(C3CCOCC3)c(=O)cc2NCCCN(C)C)cccc1C(F)(F)F [Example 9, (R)-4-((3-(dimethylamino)propyl)amino) -N-(1-(2-methyl-3-(trifluoromethyl)phenyl)ethyl)-6-oxo-1-(tetrahydro-2H-pyran-4-yl)-1,6-dihydropyridine-3-carboxamide] |
